{"source": "patent US6686354B2", "about": "“Agonists and antagonists of peripheral-type benzodiazepine receptors” (Scios, Inc., priority 1998, dated 2004)", "key": {"[1]": {"tested_on": "guinea pig heart preparation", "conditions": "cited from earlier work"}, "[2]": {"tested_on": "neonatal rat cardiomyocytes", "experiment": "Protein synthesis ([3H]phenylalanine incorporation) in neonatal rat cardiomyocytes", "assay_type": "cell-based", "text": "Neonatal rat ventricular cardiomyocytes were isolated from one or two days old rat pups using the following reagents and isolation procedure:\nWhen cardiomyocytes undergo hypertrophy several biochemical parameters can be monitored. There is an increase in protein synthesis and atrial natriuretic peptide (ANP) synthesis and an upregulation of the β-myosin heavy chain gene. These three parameters were used to assess the effects of ligands of the peripheral-type benzodiazepine receptor (PTBR) upon neonatal rat cardiomyocytes.\nProtein synthesis is assessed by including radiolabelled amino acids in the experimental incubation medias (i.e., [^3H]phenylalanine) at the end of the incubation the cell monolayer is washed with phosphate bufered saline, fized with 10% TCA and lysed with 0.25N NaOH. The total cell lysate is then assessed for tritium contant by scintillation spectrometry.\na. Neonatal rat cardiomyocytes were cultured in 24-well plates for 24 hours in serum-free medium. Medium was then removed and replaced with experimental culture medium containing [^3H]phenylalanine (10 μCi/ml) and either the PTBR agonist Ro5-4864 (RBI, MA, USA) in a concentration range of 10^−12-10^−8 M, or the PTBR antagonist PK11195 (RBI, MA, US) in a concentration range of 10^−12-10^−8 M. Control incubations received [^3H]phenylalanine (10 μCi/ml) containing medium alone. Cell cultures were returned to the incubator for a further 48 hour incubation after which time the cell culture supernatants were harvested for ANP analysis and the cell monolayers were prepared for assessment of tritium incorporation. […] However, at concentrations greater than or equal to 10^−11 M, the PTBR agonist Ro5-4864 caused a three-fold increase in protein synthesis and a five-fold increase in ANP synthesis. Data are expressed as the mean+/−standard deviations of quadruplet samples.\nb. Neonatal rat cardiomyocytes were cultured in 24-well plates for 24 hours in serum-free medium. Medium was then removed and replaced with experimental culture medium containing [^3H]phenylalanine (10 μCi/ml) and either the PTBR agonist Ro5-4864 (RBI, MA, USA) in a concentration range of 10^−12-10^−8 M, or the PTBR antagonist PK11195 (RBI, MA, US) at a concentration of 10^−10 M. Control incubations received [^3H]phenylalanine (10 μCi/ml) containing medium alone. Cell cultures were returned to the incubator for a further 48 hour incubation after which time the cell culture supernatants were harvested for ANP analysis and the cell monolayers were prepared for assessment of tritium incorporation. […] Data are expressed as the mean+/−standard deviations of quadruplet samples."}, "[3]": {"tested_on": "neonatal rat cardiomyocytes", "experiment": "Hypertrophic response of neonatal rat cardiomyocytes (conclusions over all readouts)", "assay_type": "cell-based"}, "[4]": {"tested_on": "isolated rat heart preparation", "conditions": "cited from earlier work"}, "[5]": {"tested_on": "human atrial strips", "conditions": "cited from earlier work"}, "[6]": {"tested_on": "isolated perfused Langendorf rat heart", "conditions": "cited from earlier work"}, "[7]": {"tested_on": "neonatal rat cardiomyocytes", "experiment": "ANP synthesis (competition binding ELISA of culture supernatants) in neonatal rat cardiomyocytes", "assay_type": "cell-based"}, "[8]": {"tested_on": "isolated working rat heart", "conditions": "cited from earlier work"}, "[9]": {"tested_on": "neonatal rat cardiomyocytes", "experiment": "Morphology of neonatal rat cardiomyocyte cultures (photography)", "assay_type": "cell-based", "conditions": "10^-10 M, serum-free", "procedure": "When cardiomyocytes undergo hypertrophy, their morphology changes quite drastically. The cells become larger and more spread out so another technique employed to monitor hypertrophic effects on cardiomyocytes is to assess their morphology and document that by photography.\nd. Neonatal rat cardiomyocytes were cultures in 6-well plates overnight following isolation. […] FIGS. 10B and 10C show the same cultures following 96 hours of culture and the differenes between control and treated are quite striking."}, "[10]": {"tested_on": "β-MHC promoter", "experiment": "β-MHC promoter-luciferase reporter in neonatal rat cardiomyocytes", "assay_type": "cell-based", "conditions": "greater than or equal to 10^-11 M; 24 hours; normalized to SEAP; FIG. 9", "procedure": "To monitor the expression of β-MHC, β-MHC promoter-luciferase reporter plasmid was constructed. This plasmid is inserted into the cardiomyocyte cultures by liposome mediated transfection and luciferase activity in cell lysates determined following incubation. The amount of luciferase actvity is directly proportional to the level of transcription of the β-MHC gene.\nc. Neonatal cardiomyocytes were cultures in 6-well plates overnight following isolation. The cell monolayers were then transfected with a β-MHC promoter-luciferase reported plasmid and a control plasmid to aid data normalization (pSEAP2 Clontech Corp) using lipofectamine liposome mediated plasmid delivery. Following recovery from the transfection, the cell cultures were treated for 24 hours in the presence and absence of the PTBR agonist Ro5-4864 at 10^−12 M, 10^−11 M and 10^−10 M. The culture supernatants were then harvested for SEAP activity and cell lysates prepared for luciferase assay. […] Data are expressed as the mean+/−standard derivations of triplicate samples."}, "[11]": {"tested_on": "isolated cardiac and smooth muscle", "conditions": "cited from earlier work"}, "[12]": {"conditions": "dogs; cited from earlier work"}, "[13]": {"conditions": "following intravenous administration; cited from earlier work"}, "[14]": {"tested_on": "[3H]diazepam binding to heart tissue", "sequence (P30536 2-169 limits assumed)": "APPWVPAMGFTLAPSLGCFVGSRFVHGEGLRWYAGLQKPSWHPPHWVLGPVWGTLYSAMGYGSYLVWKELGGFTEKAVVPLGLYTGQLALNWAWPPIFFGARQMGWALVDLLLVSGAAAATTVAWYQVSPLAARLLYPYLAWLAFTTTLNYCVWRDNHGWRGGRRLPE", "conditions": "cited from earlier work"}, "[15]": {"biological_target": "PTBR (Homo sapiens, UniProt P30536)", "sequence (P30536 whole entry)": "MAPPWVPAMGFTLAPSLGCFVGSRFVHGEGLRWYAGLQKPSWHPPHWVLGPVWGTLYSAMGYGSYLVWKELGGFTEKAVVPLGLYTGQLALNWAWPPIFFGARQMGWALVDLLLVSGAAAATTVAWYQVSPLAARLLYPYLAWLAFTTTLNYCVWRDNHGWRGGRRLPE", "conditions": "cited from earlier work"}, "[16]": {"conditions": "10^-11 M PK11195 (so in the source), Ro5-4864 10^-12-10^-10 M, 48 hour, FIG. 8"}, "[17]": {"conditions": "compound alone, 10^-12-10^-8 M, 48 hour incubation, FIG. 7"}, "[18]": {"conditions": "isolated perfused Langendorf rat heart"}, "[19]": {"conditions": "Ro5-4864 at higher concentrations (10^-11-10^-8 M) with 10^-10 M PK11195, FIG. 8"}, "[20]": {"conditions": "concentrations greater than or equal to 10^-11 M, 48 hour incubation, vs control, FIG. 7"}}, "data": [{"molecule": "CCC(C)N(C)C(=O)c1cc2ccccc2c(-c2ccccc2Cl)n1", "note": "(centres unmarked) [PK11195, 1-(2-chlorophenyl)-N-methyl-N-(1-methylpropyl)-3-isoquinoline carboxamide]", "values": [{"measurement": "reversal of the effects of Ro5-4864", "setting": "[1]", "result": "reversed"}, {"measurement": "effect on the Ro5-4864 induced increase in protein synthesis", "setting": "[2]; [16]", "result": "prevented"}, {"measurement": "effect on protein synthesis (incorporation of radiolabelled phenylalanine)", "setting": "[2]; [17]", "result": "no effects"}, {"measurement": "reversal of the Ro5-4864 hypertrophic effect", "setting": "[3]; coincubation of Ro5-4864 with PK11195", "result": "can be reversed"}, {"measurement": "antagonism of the positive inotropy induced by diazepam", "setting": "[4]", "result": "antagonized"}, {"measurement": "antagonism of the depressant effect of Ro5-4864", "setting": "[5]", "result": "not antagonized"}, {"measurement": "antagonism of the vasodilatory effect of Ro5-4864", "setting": "[6]; [18]", "result": "did not antagonize"}, {"measurement": "effect on the Ro5-4864 induced increase in ANP synthesis", "setting": "[7]; [16]", "result": "prevented"}, {"measurement": "effect on ANP synthesis", "setting": "[7]; [17]", "result": "no effects"}, {"measurement": "effect on cardiac function", "setting": "[8]", "result": "depress cardiac function"}]}, {"molecule": "CN1C(=O)CN=C(c2ccc(Cl)cc2)c2cc(Cl)ccc21", "note": "[Ro5-4864]", "values": [{"measurement": "cell size / morphology of cardiomyocytes", "setting": "[9]; 24 hours of culture, FIG. 10A", "result": "larger cell size"}, {"measurement": "cell size / morphology of cardiomyocytes", "setting": "[9]; 96 hours of culture, FIGS. 10B and 10C", "result": "much larger and adherent to the extracellular matrix"}, {"measurement": "duration of intracellular action potential and contractility", "setting": "[1]", "result": "decreased"}, {"measurement": "agonist induced increase in protein synthesis in the presence of PK11195", "setting": "[2]; [19]", "result": "able to overcome the inhibitory effect of PK11195"}, {"measurement": "increase in protein synthesis (incorporation of radiolabelled phenylalanine)", "setting": "[2]; [20]", "result": "three-fold"}, {"measurement": "hypertrophic response: increase in protein synthesis, ANP synthesis, transcription of the β-MHC gene reporter", "setting": "[3]; summary of Example 2", "result": "three- to five-fold"}, {"measurement": "depressant effect on the contraction amplitude (negative inotropic effect)", "setting": "[5]", "result": 20, "unit": "%"}, {"measurement": "coronary flow", "setting": "[6]; [18]", "result": "increase coronary flow"}, {"measurement": "heart rate and left ventricular contractility", "setting": "[6]; [18]", "result": "without affecting"}, {"measurement": "agonist induced increase in ANP synthesis in the presence of PK11195", "setting": "[7]; [19]", "result": "able to overcome the inhibitory effect of PK11195"}, {"measurement": "increase in ANP synthesis", "setting": "[7]; [20]", "result": "five-fold"}, {"measurement": "effect on cardiac function", "setting": "[8]", "result": "depress cardiac function"}, {"measurement": "increase in luciferase activity (transcriptional activity from the β-MHC promoter)", "setting": "[10]", "result": "three-fold"}]}, {"molecule": "O=C1CN=C(c2ccccc2Cl)c2cc([N+](=O)[O-])ccc2N1", "note": "[clonazepam]", "values": [{"measurement": "duration of intracellular action potential and contractility", "setting": "[1]", "result": "ineffective"}]}, {"molecule": "CN1C(=O)CN=C(c2ccccc2)c2cc(Cl)ccc21", "note": "[diazepam]", "values": [{"measurement": "duration of intracellular action potential and contractility", "setting": "[1]", "result": "less effective"}, {"measurement": "inotropic effect", "setting": "[4]", "result": "transient negative inotropic effect followed by a positive inotropic response"}, {"measurement": "potentiation of the actions of adenosine", "setting": "[11]", "result": "potentiates"}, {"measurement": "contractile force", "setting": "[6]; Langendorf rat heart", "result": "increased contractile force"}, {"measurement": "potentiation of the coronary vasodilator action of adenosine", "setting": "[12]", "result": "potentiates"}, {"measurement": "vagal tone", "setting": "[13]", "result": "decrease"}]}, {"molecule": "OCCN(CCO)c1nc(N2CCCCC2)c2nc(N(CCO)CCO)nc(N3CCCCC3)c2n1", "note": "[dipyridamole]", "values": [{"measurement": "competition of [3H]diazepam binding", "setting": "[14]", "result": "can compete"}]}, {"molecule": "trikontetraneuropeptide: shorter fragment of DBI (fragment 17-50) (KTKPSDEEMLFIYGHYKQATVGDINTERPGMLDF; Triakontatetraneuropeptide; UniProt P07108 17-50, looked up, fragment)", "values": [{"measurement": "selectivity for PTBR relative to DBI", "setting": "[15]", "result": "more selective for PTBR"}]}]}
